Publication PMC12458685, “Thwarting Isomerization through Rigidity: A Promising HBED Derivative for the Chelation of Gallium-68” (Inorganic Chemistry, 2025)
Read-outs that look alike come from different tables or passages of the source.

Legend:
[1] = set-up: method as in number not given; details: ref number not given, cited from earlier work; for pGa^3+: under the same conditions (pH 7.4, C L = 10 μM, C Ga = 1 μM)
[2] = set-up: method as in number not given; details: I = 0.10 M KCl, T = 25 °C; literature data, ref number not given; cited from earlier work
[3] = Thermodynamic stability of Ga^3+-HBCD (UV–vis and 1H NMR in-batch titrations; pGa^3+ calculation); assay type: physicochemical; details: for pGa^3+ (−log[Ga^3+]free): calculated at pH 7.4, C L = 10 μM and C Ga = 1 μM
Method: The thermodynamic stability of Ga^3+-HBCD was evaluated by UV–vis and ^1H NMR spectroscopies. Due to the slow complexation kinetics observed at highly acidic pH values, in-batch titrations were conducted, and heating was applied to speed up the attainment of equilibrium under these conditions. Representative pH-dependent ^1H NMR and UV–vis spectra are reported in Figures S12 and S13, respectively. The overall stability constants (log β) of Ga^3+-HBCD are provided in Table while the corresponding distribution diagram is shown in Figure in comparison with HBED.
To compare the chelating abilities of HBCD and HBED, the pGa^3+ values (pGa^3+ = −log[Ga^3+]free) were calculated under physiological conditions (pH = 7.4, C L = 10 μM and C Ga = 1 μM). This parameter accounts for both ligand basicity and metal-ion hydrolysis, with higher pGa^3+ values indicating greater complex stability under the given conditions.
(§1) UV–vis pH-spectrophotometric titrations were conducted using the in-cell method for the free HBCD and the out-of-cell method for the Ga^3+-HBCD mixture at T = 25 °C and I = 0.15 M NaCl. In the latter case, stock solutions of HBCD and Ga^3+ were combined in separate vials at 1:1 metal-to-ligand ratio (C Ga = C L = 20–50 μM). Small volumes (μL) of HCl and/or NaOH were used to adjust the pH. pH measurements were performed using a calibrated pH meter (Mettler-Toledo). The vials were sealed and heated to T = 80 °C to ensure complete complexation, then cooled to ambient temperature. The electronic spectra were recorded, and the equilibrium was considered to be reached when no further changes in either the pH or the electronic spectra were observed.
(§2) ^1H NMR spectra of free HBCD or Ga^3+-HBCD mixtures (C L = C Ga = 1 mM) were recorded at T = 25 °C and I = 0.15 M NaCl, in D2O, at different pH. The pH was adjusted following the procedure used in the UV–vis experiments. To account for isotopic effects, 0.41 log units were added to the measured pH values. Under highly acidic conditions, the pH was calculated from the HCl concentration using the formula pH = −log[C(H^+)]. […] Prolonged heating was applied to accelerate the complexation reaction. The thermodynamic data were elaborated with HypSpec, HypNMR or as described in previous publications. , Hydrolysis constants and solubility products of Ga^3+ in aqueous ionic media were taken from ref .

[4] = set-up: method as in number not given; details: for in vivo imaging; ref number not given; cited from earlier work
[5] = Formation kinetics of Ga^3+-HBCD (1H NMR and UV–vis); assay type: physicochemical
Method: Before the thermodynamic investigation, the formation kinetics of the Ga^3+-HBCD complexes were qualitatively assessed using ^1H NMR and UV–vis spectroscopies at different pH and concentrations to determine the time needed to reach equilibrium. Understanding the equilibration conditions is essential for obtaining accurate thermodynamic data and for gaining an initial insight into the binding capacity of the new chelator.
The formation kinetics of the Ga^3+-HBCD complexes was evaluated at room temperature using ^1H NMR and UV–vis spectroscopies. Equimolar amounts of Ga^3+ and HBCD solutions (final concentrations: 1 mM for ^1H NMR, 50 μM for UV–vis) in buffered media (e.g., pH 2 HCl 10^–2 M, pH 4.5 acetic/acetate buffer). The complexation reaction was tracked by monitoring the increase in peaks characteristic of Ga^3+-ligand complex formation over time.

[6] = Stability of HBCD aqueous stock solution (NMR, ESI-MS, UV–vis); assay type: physicochemical; details: room temperature, up to one month
Method: HBCD stock solutions were prepared by dissolving a weighed amount of ligand directly in Milli-Q water to achieve a concentration of approximately 1 mM. The solubility of HBCD in water depends on pH: minimal values occur at acidic pH, where the noncharged form predominates. To enhance solubility, small amount of NaOH were added, and the solution was sonicated for 15 min. The stability of HBCD at room temperature was confirmed by NMR, ESI-MS and UV–vis measurements conducted over the course of up to one month following solution preparation.

[7] = Acidity constants of HBCD by UV–vis pH-spectrophotometric titration; assay type: physicochemical; details: T = 25 °C, I = 0.15 M NaCl
Method: As the pH increases, the intensity of the band at 275 nm decreases, while two new bands emerge at 241 and 298 nm, with their absorbance progressively increasing. […] These pH-dependent changes in the electronic spectra allowed the determination of the acidity constants (pK a) of HBCD, which are summarized in Table .
as §1

[8] = Acidity constants of HBCD by pH-dependent 1H NMR titration; assay type: physicochemical; details: T = 25 °C, I = 0.15 M NaCl
Text: The assignment of the other four protonation constants (pK a,3, pK a,4, pK a,5 and pK a,6) is extremely challenging. […] According to NMR data of HBCD, pK a,3 can reasonably be assigned to one of the tertiary ammine. Once this dissociation occurs, the nitrogen atom can form a hydrogen bond with the phenolic group or with the other amine group. The next dissociation (pK a,4) can be attributed to the other phenolic moiety that can be then involved in the formation of the hydrogen bond with the protonated ammine. The last two dissociations can tentatively be attributed to the second phenolic group (pK a,5) and the tertiary amine (pK a,6).
as §2

Compound: transferrin: iron-transporting protein, one of the primary in vivo competitors for Ga^3+
- pGa^3+ [1]: 20.3

Compound: O=C(O)CN(CCN(CC(=O)O)Cc1ccccc1O)Cc1ccccc1O [HBED, N,N′-di(2-hydroxybenzyl)ethylenediamine-N,N′-diacetic acid]
- log β, Ga^3+ + H^+ + L^4– ⇌ [GaHL] ([1]; literature data): 40.81
- log β, Ga^3+ + L^4– ⇌ [GaL]^− ([1]; literature data): 38.51
- pK a,2 (H5L^+ ⇌ H^+ + H4L) [2]: 2.24
- pK a,3 (H4L ⇌ H^+ + H3L^–) [2]: 4.40
- pK a,4 (H3L^– ⇌ H^+ + H2L^2–) [2]: 8.34
- pK a,5 (H2L^2– ⇌ H^+ + HL^3–) [2]: 11.03
- pK a,6 (HL^3– ⇌ H^+ + L^4–) [2]: 12.64
- pGa^3+ (−log[Ga^3+]free) [3]: 29.6

Compound: O=C(O)CN(Cc1cccc(C(=O)O)n1)Cc1cccc(C(=O)O)n1 [dpaa]
- serum stability of the [^68Ga]Ga^3+ complex [4]: poor

Compound: O=C(O)CN(Cc1ccccc1O)[C@@H]1CCCC[C@H]1N(CC(=O)O)Cc1ccccc1O [HBCD, N,N′-di(2-hydroxybenzyl)-(1,2-cyclohexanediamine)-N,N′-diacetic acid]
- Ga^3+ complex formation ([5]; pH ∼ 2, room temperature, after 24 h, 1H NMR): no complex formation was observed
- time to reach completion of Ga^3+ complexation ([5]; pH ∼ 4.5, 50 μM, UV–vis): approximately 1 h
- Ga^3+ complexation rate ([5]; pH ∼ 4.5, mM metal and ligand concentrations, 1H NMR): nearly instantaneous
- stability of HBCD in solution [6]: confirmed
- pK a,3 (H4L ⇌ H^+ + H3L^–) ([7]; UV–vis): 5.20 ± 0.06
- pK a,4 (H3L^– ⇌ H^+ + H2L^2–) ([7]; UV–vis): 9.42 ± 0.04
- pK a,5 (H2L^2– ⇌ H^+ + HL^3–) ([7]; UV–vis): 11.94 ± 0.03
- pK a,6 (HL^3– ⇌ H^+ + L^4–) ([7]; UV–vis): 13.2 ± 0.2
- average value of pK a,1 and pK a,2 ([7]; calculated from UV–vis data): d An average value of pK a,1 and pK a,2 equal to 1.7 ± 0.2 was calculated from UV–vis data.
- pK a,1 (H6L^2+ ⇌ H^+ + H5L^+) [8]: 1.1 ± 0.2
- pK a,2 (H5L^+ ⇌ H^+ + H4L) [8]: 3.1 ± 0.3
- pK a,3 (H4L ⇌ H^+ + H3L^–) [8]: 4.9 ± 0.4
- pK a,4 (H3L^– ⇌ H^+ + H2L^2–) [8]: 9.7 ± 0.3
- pK a,5 (H2L^2– ⇌ H^+ + HL^3–) [8]: 12.2 ± 0.1
- pK a,6 (HL^3– ⇌ H^+ + L^4–) [8]: 13.5 ± 0.2
- log β, Ga^3+ + H^+ + L^4– ⇌ [GaHL] ([3]; T = 25 °C, I = 0.15 M NaCl): 41.2 ± 0.1
- log β, Ga^3+ + L^4– ⇌ [GaL]^− ([3]; T = 25 °C, I = 0.15 M NaCl): 39.2 ± 0.1
- pGa^3+ (−log[Ga^3+]free) [3]: 27.0

Compound: O=C(O)CN1CCN(CC(=O)O)CCN(CC(=O)O)CCN(CC(=O)O)CC1 [DOTA, 1,4,7,10-tetraazacyclododecane-1,4,7,10-tetraacetic acid]
- pGa^3+ [1]: 18.5
